Read-outs that look alike come from different tables or passages of the source.
Assays:
[1] = systemic FAO inhibition, rodents; cited from earlier work
[2] = portal vein infusion, 18 h chow deprived rats; cited from earlier work
[3] = system: FAO in the ventrolateral hypothalamus (VLH); conditions: cited from earlier work
human FAS = human FAS (Homo sapiens, UniProt P49327); assay: FAS inhibition assay (standard and slow-binding); format: biochemical
Procedure: (§1) In contrast, it stimulated FAO by 150% of control at 8.4 μg/ml (28 μM) and CPT-1 activity by 150% of control at 20 μg/ml (˜60 μM). In lean female Balb/C mice, a single ip dose of 60 mg/kg caused nearly 8% weight loss within 24 hours along with a 68% reduction in food intake. […] Compound 5, with a different chemical structure, has similar biological characteristics to Compound 4.

[4] = system: MCF7 human breast cancer cells; assay: Fatty acid oxidation: oxidation of [14C]palmitate to acid soluble products; format: cell-based
From the text: By “FAO-stimulator,” we mean a compound which stimulates FAO as measured by oxidation of [^14C]palmitate to acid soluble products in MCF7 human breast cancer cells as described by Watkins, et al., “Peroxisomal fatty acid beta-oxidation in HepG2 cells,” Arch Biochem Biophys, 289: 329-336 (1991). A compound whose Vmax is at least 125% of vehicle control is defined as an FAO stimulator.

CPT-1 = CPT-1 activity in digitonin permeabilized cells; format: cell-based
[5] = Weight loss, food intake and indirect calorimetry in lean female Balb/C mice, 60 mg/kg; format: in vivo; conditions: for Metabolic Mechanism (indirect calorimetry): RER / Metabolic Mechanism (indirect calorimetry): VO2: compared to pair-fed animals; for % Maximum Reduction in Food Intake: day 1; for % Maximum Reduction in Food Intake / % Max. Wt Loss: 60 mg/kg
Procedure: Compounds 4 and 5 were administered to pair-fed mice, and various biological properties were tested for. The results are summarized below:
as §1

[6] = Oral 100 mg/kg in diet-induced obese mice vs pair-fed and control animals (FIG. 3); format: in vivo
Procedure: In this experiment, compound 4 was administered orally at 100 mg/kg, in 35 μl DMSO to diet-induced obese mice, 5 animals per group.

[7] = C75 administration, separate studies; cited from earlier work
[8] = system: carnitine palmitoyltransferase-1 (CPT-1); conditions: Thupari et al.; cited from earlier work
[9] = slow binder requires preincubation at 37° C. prior to FAS assay, read-out: FAS Inhibition IC50
[10] = concentration that yields a 50% increase in fatty acid oxidation over controls, linear regression analysis, read-out: FAO SC150
[11] = single ip dose of 60 mg/kg, within 24 hours, lean female Balb/C mice

Chain of human FAS (P49327 whole entry): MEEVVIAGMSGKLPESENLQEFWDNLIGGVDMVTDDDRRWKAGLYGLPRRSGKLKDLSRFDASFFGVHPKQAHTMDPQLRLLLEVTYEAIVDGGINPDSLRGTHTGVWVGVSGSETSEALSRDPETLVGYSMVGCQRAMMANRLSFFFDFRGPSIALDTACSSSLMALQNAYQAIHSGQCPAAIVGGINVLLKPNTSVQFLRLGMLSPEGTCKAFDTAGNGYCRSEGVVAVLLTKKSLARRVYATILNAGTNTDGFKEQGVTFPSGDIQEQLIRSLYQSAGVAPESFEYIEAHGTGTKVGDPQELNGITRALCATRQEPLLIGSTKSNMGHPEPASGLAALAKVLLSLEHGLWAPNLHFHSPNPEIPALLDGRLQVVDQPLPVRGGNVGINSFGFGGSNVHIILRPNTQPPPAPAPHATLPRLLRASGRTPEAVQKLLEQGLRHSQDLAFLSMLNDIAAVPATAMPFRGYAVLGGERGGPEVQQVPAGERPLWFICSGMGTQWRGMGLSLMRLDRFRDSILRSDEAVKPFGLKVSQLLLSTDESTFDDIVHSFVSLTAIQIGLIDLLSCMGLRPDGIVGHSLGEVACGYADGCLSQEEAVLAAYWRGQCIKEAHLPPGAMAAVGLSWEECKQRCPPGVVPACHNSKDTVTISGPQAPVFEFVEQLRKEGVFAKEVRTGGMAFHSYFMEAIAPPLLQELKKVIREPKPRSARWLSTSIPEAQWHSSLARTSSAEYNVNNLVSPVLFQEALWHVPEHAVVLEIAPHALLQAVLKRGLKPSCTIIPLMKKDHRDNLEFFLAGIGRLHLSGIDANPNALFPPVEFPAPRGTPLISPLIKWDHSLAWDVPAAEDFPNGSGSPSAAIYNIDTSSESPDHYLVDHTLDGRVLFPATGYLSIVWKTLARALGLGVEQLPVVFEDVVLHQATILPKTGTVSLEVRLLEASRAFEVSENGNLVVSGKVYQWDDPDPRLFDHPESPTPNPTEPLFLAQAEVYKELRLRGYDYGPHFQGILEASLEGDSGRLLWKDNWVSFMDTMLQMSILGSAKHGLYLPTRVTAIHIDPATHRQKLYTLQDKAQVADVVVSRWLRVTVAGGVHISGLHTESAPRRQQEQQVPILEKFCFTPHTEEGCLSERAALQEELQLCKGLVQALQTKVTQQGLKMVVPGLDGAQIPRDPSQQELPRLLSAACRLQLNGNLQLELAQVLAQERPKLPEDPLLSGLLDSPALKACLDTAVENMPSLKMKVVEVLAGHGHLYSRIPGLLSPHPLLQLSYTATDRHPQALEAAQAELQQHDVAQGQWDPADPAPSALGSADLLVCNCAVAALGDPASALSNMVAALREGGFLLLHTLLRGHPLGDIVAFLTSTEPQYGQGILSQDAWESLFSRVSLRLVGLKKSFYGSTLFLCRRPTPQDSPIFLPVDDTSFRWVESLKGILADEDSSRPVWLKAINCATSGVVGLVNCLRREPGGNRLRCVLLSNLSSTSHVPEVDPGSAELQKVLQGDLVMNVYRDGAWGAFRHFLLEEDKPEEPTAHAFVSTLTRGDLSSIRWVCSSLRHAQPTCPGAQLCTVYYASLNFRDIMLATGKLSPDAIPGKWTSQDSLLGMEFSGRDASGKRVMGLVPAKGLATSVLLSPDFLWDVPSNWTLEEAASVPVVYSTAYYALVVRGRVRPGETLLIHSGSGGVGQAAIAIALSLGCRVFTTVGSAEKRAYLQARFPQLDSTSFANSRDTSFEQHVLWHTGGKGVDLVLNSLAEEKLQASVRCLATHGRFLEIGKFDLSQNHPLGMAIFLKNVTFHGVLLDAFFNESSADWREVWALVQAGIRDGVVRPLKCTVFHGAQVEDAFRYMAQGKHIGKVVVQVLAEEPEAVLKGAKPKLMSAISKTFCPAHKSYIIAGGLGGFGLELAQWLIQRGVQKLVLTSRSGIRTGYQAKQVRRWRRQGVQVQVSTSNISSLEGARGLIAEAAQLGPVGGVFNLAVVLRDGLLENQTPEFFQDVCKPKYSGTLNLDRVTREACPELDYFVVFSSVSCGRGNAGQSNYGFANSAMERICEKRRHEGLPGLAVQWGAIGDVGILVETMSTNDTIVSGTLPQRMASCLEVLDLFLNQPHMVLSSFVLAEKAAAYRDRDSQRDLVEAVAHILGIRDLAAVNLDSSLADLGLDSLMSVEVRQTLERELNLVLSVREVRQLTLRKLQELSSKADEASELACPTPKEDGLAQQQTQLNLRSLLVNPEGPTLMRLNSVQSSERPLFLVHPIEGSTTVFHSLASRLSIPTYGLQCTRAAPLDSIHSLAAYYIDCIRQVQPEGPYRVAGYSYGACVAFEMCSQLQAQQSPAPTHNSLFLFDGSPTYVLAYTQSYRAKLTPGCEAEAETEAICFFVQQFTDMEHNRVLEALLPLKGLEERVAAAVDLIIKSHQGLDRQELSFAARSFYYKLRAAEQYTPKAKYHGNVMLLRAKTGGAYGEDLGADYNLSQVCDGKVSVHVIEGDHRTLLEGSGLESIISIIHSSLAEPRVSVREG

For `O=C(O)CS` [mercaptoacetate], the feeding [1] is listed as “Increased feeding”.

In the case of `CCCCCCCC(=O)O` [caprylic acid], the “FAO as measured by plasma β-hydroxybutyrate” value [2] is given as “increased FAO” and the “reduction of the size of the first dark phase meal” value [2] is given as 38%.

In the case of `CCCCCCCCCCCCCCC1(C(=O)OC)CO1` (stereo not drawn) [methyl palmoxirate], the feeding [1] is given as “Increased feeding”.

For `C=CCCC(=O)O` [Compound 4-PA, 4-pentanoic acid], the “weight or carcass composition” value ([3]; after 2 weeks of central FAO inhibition, rats) is given as “no significant changes in weight or carcass composition” and the “reduction of FAO in the VLH” value ([3]; infusion for 14 days into the VLH of rats) is given as 37%.

For `C[N+](C)(C)C[C@H](O)CC(=O)[O-]` [L-carnitine], the “food intake or animal weight” value ([3]; infusion into the VLH of rats) is given as “did not affect food intake or animal weight” and the “increase of FAO in the VLH over control levels” value ([3]; infusion into the VLH of rats) is given as 28%.

With `C=CCC1(CC=C)C(=O)S[C@](C)(CCCCCCCC)C1=O` [Compound 4] the IC50 (human FAS; [9]) was over 77.5 µM, the IC50 (human FAS; standard and slow-binding assays, read-out: human FAS inhibition: no inhibition at concentrations up to) was over 310 µM and the EC50 [4, 10] was 8.4 µg/mL. The EC50 ([4]; molar equivalent of 8.4 μg/ml, read-out: concentration stimulating FAO by 150% of control) was 28 µM, the “CPT-1 Activity %” value (CPT-1; % of control at concentration for maximal CPT-1 activity, digitonin permeabilized cells) was 150% and the “concentration giving CPT-1 activity 150% of control” value (CPT-1; molar equivalent of 20 μg/ml) was about 60 µM. The “concentration for maximal CPT-1 activity” value (CPT-1; number in parenthesis, digitonin permeabilized cells) was 20 µg/mL, the “Metabolic Mechanism (indirect calorimetry): RER” value (shortened to “Metabolic Mechanism … RER”) [5] was “↓RER p = 0.0057” and the “Metabolic Mechanism (indirect calorimetry): VO2” value (shortened to “Metabolic Mechanism … VO2”) [5] was “↑VO2”. For the same molecule, the “Metabolic Mechanism … RER” value ([5]; listed as compound 4) was “reducing RER”, the “Metabolic Mechanism … VO2” value ([5]; listed as compound 4) was “increased VO2 compared to pair-fed animals” and the “% Maximum Reduction in Food Intake” value ([5]; lean female Balb/C mice) was 68% (day 1). The “% Max. Wt Loss” value ([5]; lean female Balb/C mice) was 7.9%, the “reduction in food intake” value [5, 11] was 68% and the weight loss [5, 11] was about 8%. For the same molecule, the “RER vs pair-fed group (FIG. 3D)” value ([6]; oral 100 mg/kg) was “significantly reduced compared to the pair-fed group on days 1, 3, and 4”, the “VO2 by indirect calorimetry vs pair-fed animals (FIG. 3C)” value ([6]; oral 100 mg/kg) was “maintained their VO2 compared to pair-fed animals on the first two days following treatment with a significant increase by day 3” and the “food intake vs control animals (FIG. 3B)” value ([6]; oral 100 mg/kg) was “ate significantly less food than control animals on the two days following treatment”. The “weight loss vs pair-fed animals (FIG. 3A)” value ([6]; oral 100 mg/kg in DMSO) was “lost more weight and maintained the weight loss longer than the pair-fed animals”.

In the case of `C=C1C(=O)O[C@@H](CCCCCCCC)[C@@H]1C(=O)O` (relative stereo) [Compound C75, trans-tetrahydro-3-methylene-2-oxo-5-n-octyl-4-furancarboxylic], the energy expenditure [7] is given as “increases energy expenditure”, the food intake [7] is given as “reducing food intake” and the CPT-1 activity [8] is given as “stimulates carnitine palmitoyltransferase-1 (CPT-1) activity”.

With `CCCCC1OC(=O)C(=O)C1C(=O)OCC` (stereo not drawn) [Compound 5] the IC50 (human FAS; [9]) was over 110 µM, the EC50 [4, 10] was 9 µg/mL and the “Metabolic Mechanism … RER” value [5] was “↓RER p = 0.01”. For the same molecule, the “Metabolic Mechanism … VO2” value [5] was “↑VO2”, the “% Maximum Reduction in Food Intake” value ([5]; lean female Balb/C mice) was 50% (day 1) and the “% Max. Wt Loss” value ([5]; lean female Balb/C mice) was 12.3%.

From patent US20100168218A1 (priority 2005, published 2010)
